Structures are written as SMILES.

The test relates to PARP PARylation in HeLa cells. Nature of the test: PARylation assay in HeLa cells. It is filed as cell-based. As to conditions: Homo sapiens, H2O2 200 μM induced DNA damage.

A word on the EC50: it is the concentration needed to bring the measured effect to its halfway point. A higher EC50 goes with weaker potency. Regarding `O=C1NN=C2CC(c3ccccc3)Cc3[nH]c4cccc1c4c32` (stereo not drawn) [Compound 5, 2-phenyl-2,3,5,10-tetrahydro-[1,2]diazepino[3,4,5,6-def]carbazol-6(1H)-one], the concentration giving a half-maximal response (EC50) was 10.1 nM.

For `CN(C)c1ccc(C2CC3=NNC(=O)c4cc(F)cc5[nH]c(c3c45)C2)cc1` (stereo not drawn) [Compound 12, 2-(4-(dimethylamino)phenyl)-8-fluoro-2,3,5,10-tetrahydro-[1,2]diazepino[3,4,5,6-def]carbazol-6(1H)-one], a half-maximal effect (EC50) was put at 26.6 nM. `N[C@@H](Cc1ccccc1)C(=O)N1CC2=NNC(=O)c3cccc4[nH]c(c2c34)C1` [Compound 64, (S)-2-(2-amino-3-phenylpropanoyl)-2,3,4,9-tetrahydro-2,4,9,10-tetraazacyclohepta[def]fluoren-8(1H)-one] showed an EC50 of 48 nM. This EC50 is about 1.8-fold higher than that of the compound before.

The values are drawn from patent US9260440B2, “Fused tetra or penta-cyclic dihydrodiazepinocarbazolones as PARP inhibitors” (BeiGene, Ltd., priority 2011, dated 2016).
